The source of these data is paper PMC10845205, “Discovery of novel antibacterial agent for the infected wound treatment: all-hydrocarbon stapling optimization of LL-37” (Theranostics, 2024).

Converted amounts (≈) assume the structure as drawn. Positions of bridges follow the written chain, without caps; N, C: chain ends. Non-standard residues stand in square brackets, D forms with d. Residues, ends and D or L forms follow the SMILES beside them. S5 = C=CCCC[C@](C)(N)C(=O)O

In one data set the test system is rabbit erythrocytes. Nature of the data set: Hemolysis assay. Conditions: rabbit erythrocytes 4% (v/v), 256 μg/mL peptide, 1 h 37 °C, absorbance 570 nm, 0.1% Triton X-100 control. Here is the method: The hemolytic activity of peptides was tested using rabbit erythrocytes (Figure S13). […]
the supernatant was collected and analyzed by RP-HPLC, with a UV detector monitored at 220 nm. Record the peak area of the intact peptide and calculate the percentage of remaining peptide based on the integrated area as, Peptide remaining (%) = peak area of remaining peptide/peak area of intact peptide×100%. Experiments were performed […]
with 200 μL of 4% (v/v) rabbit erythrocyte suspension, and the mixed solution was diluted with rabbit red blood cell suspension to obtain a series of peptide stock solution with different concentrations by fold dilution. […] Separate the supernatant and use a microplate reader (BioTek, USA) to measure hemoglobin release. Measure the absorbance at a wavelength of 570nm and calculate the percentage of hemolysis as follows: hemolysis (%) = (Abspeptide-Absblank)/(Abscontrol-Absblank), where Absblank and Abscontrol were absorbance of samples treated with PBS and 0.1% Triton X-100, […]
N-phenyl-1-naphthylamine (NPN, Macklin, China) was used to evaluate the integrity of OM of E. coli treated with the linear and stapled peptides. […] Subsequently, add a final concentration of 10 μM of NPN in each well of the plate and after incubation for 30 m inutes, record the fluorescence at 420 nm using a microplate reader with an exc itation wavelength of 350 […]

In the next data set the test system is NIH-3T3 cell. Conditions: CCK-8, 24 h incubation, nonlinear regression, 3 independent measurements. Here is the method: For development of the stapled KR-12 derivatives to treat bacterial infections in vivo, their cytotoxicity was examined via the CCK-8 assay, which could provide a quantitative assessment of cell viability based on the dehydrogenase activity. The mouse embryonic fibroblast NIH-3T3 cell was selected and incubated with various concentrations of KR-12 and its stapled derivatives.
Mouse embryonic fibroblast cells NIH-3T3 and mouse monocyte macrophage leukemia cells RAW264.7 were obtained from Shanghai Institute of Biochemistry and Cell Biology, Chinese Academy of Sciences. These two cells were maintained in DMEM and RPMI-1640, respectively. Both media were supplemented with 10% FBS and 1% 100 U/mL penicillin-streptomycin solution. Cells were maintained at 37 °C in a 5% CO2 and humidified incubator. Replace the culture medium every day until the cell grows to confluence. Cells were then treated with 0.25% trypsin–EDTA and split using fresh medium for either passage or analysis.
CCK-8 cell counting kit was utilized to examine the cytotoxicity of the linear and stapled peptides. NIH-3T3 cell was planked at a density of 1.5×10^4 cell/well in a 96 - well plate and incubated it for 24 hours at 37 °C. Cells were then treated with different concentrations of peptides in fresh DMEM and incubated for 24 hours before the addition of 10 μL CCK -8 and incubation for a further 1 hour. Measure the absorbance at 450nm using a microplate reader (BioTek, USA) and calculate the percentage of cell viability as: cell viability (%) = (Abspeptide-Absblank)/(Abscontrol-Absblank)×100%, where Abscontrol is the absorbance of cells treated with PBS and Abs blank is the absorbance of the cell-free medium. The data was fitted using the nonlinear regression within

`CC[C@H](C)[C@H](NC(=O)[C@H](CCCNC(=N)N)NC(=O)[C@H](CCCCN)NC(C)=O)C(=O)N[C@H](C(=O)N[C@@H](CCC(N)=O)C(=O)N[C@@H](CCCNC(=N)N)C(=O)N[C@H](C(=O)N[C@@]1(C)CCCC=CCCC[C@@](C)(C(N)=O)NC(=O)[C@H](CC(C)C)NC(=O)[C@H](Cc2ccccc2)NC(=O)[C@H](CC(=O)O)NC1=O)[C@@H](C)CC)C(C)C` [KR-12 (K8, R12)] (Ac-KRIVQRI[S5]DFL[S5]-NH2; staple 8-12): the “H256 (hemolysis percentage)” value with rabbit erythrocytes came out at 77.2 ± 0.3%. Also, the “IC50 against NIH-3T3 cell” value in the data set on NIH-3T3 cell was 52.8 µg/mL (≈ 33.4 µM).
